Data from patent US7718679B2, “Heteroaryl carboxamides” (Hoffman-La Roche Inc., priority 2006, dated 2010).

Target: T1, human factor Xa (Homo sapiens, UniProt P00742)
T1 construct: Factor Xa is a serine endopeptidase composed of two disulfide-linked subunits; purchased Enzyme Research Laboratories
Test: Factor Xa chromogenic peptide substrate (S-2222) assay
Format: biochemical
Settings: apparent Ki by Cheng-Prusoff from IC50; human factor Xa 3 nM, substrate S-2222, pH 7.8, room temperature
Procedure: Factor Xa activity was measured spectrophotometrically in microtiter plates in a final volume of 150 μl using the following conditions: Inhibition of human factor Xa (Enzyme Research Laboratories) was tested at an enzyme concentration of 3 nM using the chromogenic substrate S-2222 (Chromogenix AB, Mölndal, Sweden) at 200 nM. The reaction kinetics of the enzyme and the substrate were linear with both time and the enzyme concentration. The inhibitors were dissolved in DMSO and tested at various concentrations up to 100 μM. The inhibitors were diluted using HNPT buffer consisting of HEPES 100 mMM, NaCl 140 mM, PEG 6000 0.1% and Tween 80 0.02%, pH 7.8. […] The velocity of the reaction was determined by the autoreader from the slope of the linear regression fit to 7 time points (1 minute). The initial velocity for each inhibitor concentration was determined by the slope of at least 4 time points in the linear phase by a linear regression fit (mOD/min^2). Apparent dissociation constants Ki were calculated according to Cheng and Prusoff [Cheng, Y. C.; Prusoff, W. H. Relationship between the inhibition constant (Ki) and the concentration of the inhibitor that causes 50 percent inhibition (IC50) of an enzyme reaction. Biochem. Pharmacol. 1973, 22, 3099-3108.] based on the IC50 and the respective Km, determined previously (Ki=IC50/(1+S/Km)). […]

T1 sequence (P00742 235-488 limits assumed): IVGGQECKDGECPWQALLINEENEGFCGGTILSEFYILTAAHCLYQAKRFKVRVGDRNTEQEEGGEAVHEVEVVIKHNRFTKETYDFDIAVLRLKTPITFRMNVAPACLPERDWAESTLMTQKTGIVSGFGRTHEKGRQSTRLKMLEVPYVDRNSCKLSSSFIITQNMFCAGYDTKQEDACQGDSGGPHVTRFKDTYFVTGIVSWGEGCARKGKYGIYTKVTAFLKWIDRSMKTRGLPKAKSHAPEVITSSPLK
T1 sequence (P00742 41-179 partner limits assumed): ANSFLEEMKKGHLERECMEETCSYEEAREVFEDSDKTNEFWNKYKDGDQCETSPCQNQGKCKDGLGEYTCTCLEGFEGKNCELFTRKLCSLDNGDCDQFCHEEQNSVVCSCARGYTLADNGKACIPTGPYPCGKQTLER

| SMILES | Ki |
| --- | --- |
| O=C(Nc1ccc(-n2ccncc2=O)cc1F)c1nc(CNC(=O)c2ccc(Cl)s2)no1 [Example 3, 3-{[(5-chloro-thiophene-2-carbonyl)-amino]-methyl}-[1,2,4]oxadiazole-5-carboxylic acid [2-fluoro-4-(2-oxo-2H-pyrazine-1-yl)-phenyl]-amide] | 0.007 µM |
| O=C(Nc1ccc(N2CCOCC2=O)cc1)c1nc(CNC(=O)c2ccc(Cl)s2)no1 [Example 5, 3-{[(5-chloro-thiophene-2-carbonyl)-amino]-methyl}-[1,2,4]oxadiazole-5-carboxylic acid [4-(3-oxo-morpholin-4-yl)-phenyl]-amide] | 0.016 µM |
